In patent publication US9409884B2 (Rigel Pharmaceuticals, Inc., priority 2012, dated 2016):

Target: AMPK
Assay: AMPK activation, enzyme-linked immunosorbent assay
Type: biochemical
Conditions: Table 8, compounds of Table 1
Procedure, shortened: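 AMPK activation by test compounds was measured by enzyme-linked immunosorbent assay.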

EC50	SMILES
1000 to 5000 nM	CC(C)(C)OC(=O)N1CCC(NC(=O)c2sc3cc(OC4CCN(c5ccc(C(F)(F)F)cc5)CC4)ccc3c2Cl)CC1 [Compound 1-147, tert-butyl 4-(3-chloro-6-(1-(4-(trifluoromethyl)phenyl)piperidin-4-yloxy)benzo [b]thiophene-2-carboxamido) piperidine-1-carboxylate]
100 to 500 nM	O=C(NC1CCN(Cc2ccccn2)CC1)c1cc2ccc(OC3CCN(c4ccc(C(F)(F)F)cc4)CC3)cc2o1 [Compound 1-93, N-(1-(pyridin-2-ylmethyl)piperidin-4-yl)-6-(1-(4-(trifluoromethyl)phenyl)piperidin-4-yloxy)benzofuran-2-carboxamide]
< 100 nM	O=C(NC1CCN(Cc2ccncc2)CC1)c1cc2cc(OC3CCN(c4ccc(OC(F)(F)F)cc4)CC3)ccc2s1 [Compound 1-137, N-(1-(pyridin-4-ylmethyl)piperidin-4-yl)-5-(1-(4-(trifluoromethoxy)phenyl)piperidin-4-yloxy)benzo [b]thiophene-2-carboxamide]
< 100 nM	O=C(NC1CCN(Cc2ccncc2)CC1)c1cc2cc(OC3CCN(c4ccc(OC(F)(F)F)cc4)CC3)ccc2o1 [Compound 1-78, N-(1-(pyridin-4-ylmethyl)piperidin-4-yl)-5-(1-(4-(trifluoromethoxy)phenyl)piperidin-4-yloxy)benzofuran-2-carboxamide]
< 100 nM	O=C(NC1CCN(Cc2ccc(F)cc2)CC1)c1cncc(OC2CCN(c3ccc(C(F)(F)F)cc3)CC2)c1 [Compound 1-16, N-(1-(4-fluorobenzyl)piperidin-4-yl)-5-(1-(4-(trifluoromethyl)phenyl)piperidin-4-yloxy)nicotinamide]
100 to 500 nM	O=C(NC1CCN(Cc2ccccn2)CC1)c1sc2cc(OC3CCN(c4ccc(C(F)(F)F)cc4)CC3)ccc2c1Cl [Compound 1-153, 3-chloro-N-(1-(pyridin-2-ylmethyl)piperidin-4-yl)-6-(1-(4-(trifluoromethyl)phenyl)piperidin-4-yloxy)benzo[b] thiophene-2-carboxamide]
< 100 nM	O=C(NC1CCN(Cc2ccc(C(F)(F)F)cc2)CC1)c1cc2ccc(OC3CCN(c4ccc(C(F)(F)F)cc4)CC3)cc2o1 [Compound 1-99, N-(1-(4-(trifluoromethyl)benzyl)piperidin-4-yl)-6-(1-(4-(trifluoromethyl)phenyl)piperidin-4-yloxy)benzofuran-2-carboxamide]
5000 to 10000 nM	N#Cc1ccc(CN2CCC(NS(=O)(=O)c3ccc(OC4CCN(c5ccc(C(F)(F)F)cc5)CC4)nc3)CC2)cc1 [Compound 1-56, N-(1-(4-cyanobenzyl)piperidin-4-yl)-6-(1-(4-(trifluoromethyl)phenyl)piperidin-4-yloxy)pyridine-3-sulfonamide]

Same assay, conditions: Table 9, compounds of Table 2

EC50	SMILES
500 to 1000 nM	N#Cc1ccc(S(=O)(=O)N2CCC(NC(=O)c3ccc4[nH]c5c(c4c3)CN(Cc3ccc(C(F)(F)F)cc3)CC5)CC2)cc1 [Compound 2-21, N-(1-(4-cyanophenylsulfonyl)piperidin-4-yl)-2-(4-(trifluoromethyl)benzyl)-2,3,4,5-tetrahydro-1H-pyrido[4,3-b]indole-8-carboxamide]

Same assay, conditions: Table 10, compounds of Table 3

EC50	SMILES
< 100 nM	N#Cc1ccc(CN2CCC(NC(=O)c3ccc4c(c3)CN(Cc3ccc(F)cc3)CC4)CC2)cc1 [Compound 3-34, N-(1-(4-cyanobenzyl)piperidin-4-yl)-2-(4-fluorobenzyl)-1,2,3,4-tetrahydroisoquinoline-7-carboxamide]

Same assay, conditions: Table 12, compounds of Table 5

EC50	SMILES
< 1000 nM	N#Cc1ccc(CN2CCC(NC(=O)c3cccc(OC4CCN(Cc5ccc(C#N)c(F)c5)CC4)c3)CC2)cc1 [Compound 5-120, 3-(1-(4-cyano-3-fluorobenzyl)piperidin-4-yloxy)-N-(1-(4-cyanobenzyl)piperidin-4-yl)benzamide]

Same assay, conditions: Table 13, compounds of Table 6

EC50	SMILES
< 100 nM	COc1ccc(CN2CCC(NC(=O)c3cc4cc(C(=O)N5CCN(Cc6ccc(C(F)(F)F)cc6)CC5)ccc4o3)CC2)cc1F [Compound 6-129, N-(1-(3-fluoro-4-methoxybenzyl)piperidin-4-yl)-5-(4-(4-(trifluoromethyl)benzyl)piperazine-1-carbonyl) benzofuran-2-carboxamide]
< 100 nM	CS(=O)(=O)c1ccc(OC2CCN(C(=O)c3ccc4oc(C(=O)NC5CCN(Cc6ccc(OC(F)(F)F)cc6)CC5)cc4c3)CC2)cc1 [Compound 6-135, 5-(4-(4-(methylsulfonyl)phenoxy)piperidine-1-carbonyl)-N-(1-(4-(trifluoromethoxy)benzyl)piperidin-4-yl)benzofuran-2-carboxamide]
< 100 nM	O=C(NC1CCN(Cc2ccncc2)CC1)c1cc2cc(C(=O)N3CCC(Oc4ccc(F)cc4)CC3)ccc2o1 [Compound 6-18, 5-(4-(4-fluorophcnoxy)piperidine-1-carbonyl)-N-(1-(pyridin-4-ylmethyl)piperidin-4-yl)benzofuran-2-carboxamide]
100 to 1000 nM	N#Cc1ccc(CN2CCC(NC(=O)c3cc4cc(NC(=O)Cc5ccc(C(F)(F)F)cc5)ccc4o3)CC2)cc1 [Compound 6-54, N-(1-(4-cyanobenzyl)piperidin-4-yl)-5-(2-(4-(trifluoromethyl)phenyl)acetamido)benzofuran-2-carboxamide]
< 100 nM	COc1ccc(CN2CCC(NC(=O)c3cc4cc(NC(=O)C5CCN(c6ccc(C#N)cc6)CC5)ccc4o3)CC2)cc1 [Compound 6-21, 1-(4-cyanophenyl)-N-(2-(1-(4-methoxybenzyl)piperidin-4-ylcarbamoyl)benzofuran-5-yl)piperidine-4-carboxamide]
< 100 nM	CS(=O)(=O)c1ccc(O[C@H]2CCN(C(=O)c3ccc4oc(C(=O)NC5CCN(Cc6ccc(OC(F)(F)F)cc6)CC5)cc4c3)C[C@@H]2F)cc1 [Compound 6-115, 5-((3,4-trans)-3-fluoro-4-(4-(methylsulfonyl)phenoxy)piperidine-1-carbonyl)-N-(1-(4-(trifluoromethoxy)benzyl)piperidin-4-yl)benzofuran-2-carboxamide]
< 100 nM	CS(=O)(=O)c1ccc(CN2CCN(C(=O)c3ccc4oc(C(=O)NC5CCN(Cc6cccc(OC(F)(F)C(F)F)c6)CC5)cc4c3)CC2)cc1 [Compound 6-157, 5-(4-(4-(methylsulfonyl)benzyl)piperazine-1-carbonyl)-N-(1-(3-(1,1,2,2-tetrafluoroethoxy)benzyl)piperidin-4-yl)benzofuran-2-carboxamide]

Same assay, conditions: Table 14, compounds of Table 7

EC50	SMILES
< 1000 nM	COc1ccc(C(=O)C2CCN(C(=O)c3ccc(C(=O)NC4CCN(Cc5ccc(F)c(OC)c5)C[C@@H]4C)cn3)CC2)cc1 (stereo partly drawn) [Compound 7-97, N-((3,4-cis)-1-(4-fluoro-3-methoxybenzyl)-3-methylpiperidin-4-yl)-6-(4-(4-methoxybenzoyl)piperidine-1-carbonyl)nicotinamide]
< 1000 nM	O=C(NC1CCN(Cc2ccc(OC(F)(F)F)cc2)CC1)c1ccc(C(=O)N2CCC(Oc3cccc(NC(=O)C4CC4)c3)CC2)nc1 [Compound 7-108, 6-(4-(3-(cyclopropanecarboxamido)phenoxy)piperidine-1-carbonyl)-N-(1-(4-(trifluoromethoxy)benzyl)piperidin-4-yl)nicotinamide]
< 1000 nM	COc1ccc(C(=O)C2CCN(C(=O)c3ccc(C(=O)NC4CCN(Cc5ccc(F)c(OC)c5)C[C@H]4F)cn3)CC2)cc1 (stereo partly drawn) [Compound 7-43, N-((3,4-trans)-3-fluoro-1-(4-fluoro-3-methoxybenzyl)piperidin-4-yl)-6-(4-(4-methoxybenzoyl)piperidine-1-carbonyl)nicotinamide]
